Measured values from publication PMC12670317, “Targeted NAT10 Degradation by PROTAC NP1192 Suppresses Hypoxia-Adaptive Glycolysis and Reinvigorates CD8^+ Effector T‑Cell Function for Synergistic Cancer Immunotherapy” (ACS Central Science, 2025).
Read-outs that look alike come from different tables or passages of the source.

What was measured:
SiHa cells [1] = assay: SiHa cell viability IC50 (CCK-8); type: cell-based, human
Description: NAT10^± SiHa cells and SiHa cells treated with DMSO, Remodelin or NP1192 for 36 h were seeded into the wells of a 96-well microplate at identical densities of 2000 or 3000 cells per well. After the cells adhered to the well surface, 110 μL of a 1:10 mixture of CCK-8 reagent (Meilunbio, China) and RPMI 1640 medium was added to each well. The microplate was then incubated for another 2 h in the incubator, and the mixture was replaced with an equal volume of medium. A microplate reader (BioTek, US) was used to measure the absorption at a wavelength of 450 nm.

[2] = test system: glioblastoma (GBM) patient-derived organoids; assay: ATP-based viability assay in patient-derived organoids, GBM; type: cell-based; settings: Homo sapiens, GBM PDOs, read-out: IC50, organoid viability
Description: Organoid culture was performed according to previously established protocols. Briefly, we procured patient-derived tissue samples provided and technically manipulated by Accurate International Biotechnology Co., Ltd. Subsequently, these samples were subjected to mechanical and enzymatic dissociation to disaggregate the tissue into single cells or small clusters, while preserving cellular integrity. Following this initial step, the isolated cells or tissue fragments were embedded within a 3D ECM scaffold, such as Matrigel or collagen. The ECM scaffold served as a supportive substrate, promoting cellular self-organization and mimicking native tissue architecture. Additionally, a precisely formulated cocktail of growth factors, cytokines, and signaling molecules tailored to the specific tissue of interest was meticulously formulated and added to the culture medium to facilitate organoid growth and maintenance.

[3] = Pharmacokinetic study in male SD rats; type: in vivo; settings: Sprague-Dawley (SD), rat, plasma; for AUC(0-t): 0–24 h; for MRT last: read-out: MRT(0−t); for MRT inf: read-out: MRT(0−∞)
Description: Male SD rats (180–220 g) were purchased from Beijing Vital River Laboratory Animal Technology Co., Ltd. Blood samples (0.25 mL) were collected from the tail vein at 0.0833, 0.25, 0.5, 1, 2, 4, 6, 8, and 24 h after oral (10 mg/kg) or intravenous (2 mg/kg) administration of compound NP1192. Drug concentrations in the samples were determined by using liquid chromatography–mass spectrometry (LC-MS/MS). The mobile phase consisted of a mixture of solvent A (acetonitrile) and solvent B (formic acid/ultrapure water, 1:1000, v/v). The flow rate of the mobile phase was 0.3 mL/min, and the injection volume was 10 μL.

SiHa cells [4] = assay: Colony formation assay in SiHa cells; type: cell-based, human; settings: pretreated 20 μM 36 h, 2 weeks
Description: NAT10^± SiHa cells and SiHa cells treated with DMSO, Remodelin or NP1192 for 36 h were seeded into the wells of a 6-well microplate at identical densities of 2000 or 3000 cells per well. The cells were then incubated in the incubator for at least 2 weeks to form colonies. After the incubation period, the cells were fixed with formalin and then stained with crystal violet. The colonies were then counted via a microscope. The number and size of the colonies in the experimental groups were compared.

With N#Cc1ccc(-c2csc(N(CCCCCCC(=O)N3CCN(c4cccc5c4C(=O)N(C4CCC(=O)NC4=O)C5=O)CC3)N=C3CCCC3)n2)cc1 (stereo not drawn) [NP1192] the IC50 (SiHa cells [1]; Homo sapiens, parental SiHa cells, 36 h, read-out: IC50, inhibition of SiHa cell viability) was 7.81 µM, the “IC50 lower than that of Remodelin” value (SiHa cells [1]; SiHa cells) was 26.8% and the IC50 [2] was 13.8 µM. It also gave a Cmax ([3]; iv, i.v. 2 mg/kg) of 759 ± 134 ng/mL, an AUC(0-t) ([3]; iv, i.v. 2 mg/kg) of 365 ± 42.6 ng·h/mL and an AUC(0-inf) ([3]; iv, i.v. 2 mg/kg) of 367 ± 43 ng·h/mL. For the same compound, the Tmax ([3]; iv, i.v. 2 mg/kg) was 0.0833 h, the clearance ([3]; iv, i.v. 2 mg/kg) was 91.7 mL/min/kg and the half-life ([3]; iv, i.v. 2 mg/kg) was 0.967 ± 0.214 h. The MRT last ([3]; iv, i.v. 2 mg/kg) was 0.529 ± 0.0268 h, the MRT inf ([3]; iv, i.v. 2 mg/kg) was 0.57 ± 0.0206 h and the Vd ([3]; iv, i.v. 2 mg/kg, read-out: Vz) was 7.6 ± 1.39 L/kg. It also gave a bioavailability ([3]; oral, p.o. 10 mg/kg vs i.v. 2 mg/kg, read-out: oral bioavailability (F)) of 1.35%, an AUC(0-inf) ([3]; po, p.o. 10 mg/kg) of 29.5 ± 1.59 ng·h/mL and a Tmax ([3]; po, p.o. 10 mg/kg) of 1.67 h. The half-life ([3]; po, p.o. 10 mg/kg) was 2.4 ± 1.15 h, the MRT last ([3]; po, p.o. 10 mg/kg) was 1.56 ± 0.358 h and the MRT inf ([3]; po, p.o. 10 mg/kg) was 2.85 ± 0.862 h. For the same compound, the Cmax ([3]; po, p.o. 10 mg/kg) was 13.9 ± 6.42 ng/mL, the AUC(0-t) ([3]; po, p.o. 10 mg/kg) was 24.7 ± 1.11 ng·h/mL and the colony formation capacity (SiHa cells [4]) was “substantial decrease in colony formation capacity”.
